Where “and” joins values, the source holds several entries; their conditions need not be identical. Equal values may be shown once.
Columns and labels:
[1] = molecular target: T1, human TRPM8 (Homo sapiens, UniProt Q7Z2W7); experiment: functional cell based calcium assay, cells recombinantly expressing human TRPM8; settings: for EC50: activator (agonist) of TRPM8, intracellular calcium, calcium-sensitive dye fluorescence; for EC50 as activator of TRPM8 times lower than EC50 as activator of TRPA1: ratio EC50 TRPA1 / EC50 TRPM8
T1 construct: expressed in transfected cells; host or cells: HEK293 (human cells)
T1 sequence (Q7Z2W7 whole entry): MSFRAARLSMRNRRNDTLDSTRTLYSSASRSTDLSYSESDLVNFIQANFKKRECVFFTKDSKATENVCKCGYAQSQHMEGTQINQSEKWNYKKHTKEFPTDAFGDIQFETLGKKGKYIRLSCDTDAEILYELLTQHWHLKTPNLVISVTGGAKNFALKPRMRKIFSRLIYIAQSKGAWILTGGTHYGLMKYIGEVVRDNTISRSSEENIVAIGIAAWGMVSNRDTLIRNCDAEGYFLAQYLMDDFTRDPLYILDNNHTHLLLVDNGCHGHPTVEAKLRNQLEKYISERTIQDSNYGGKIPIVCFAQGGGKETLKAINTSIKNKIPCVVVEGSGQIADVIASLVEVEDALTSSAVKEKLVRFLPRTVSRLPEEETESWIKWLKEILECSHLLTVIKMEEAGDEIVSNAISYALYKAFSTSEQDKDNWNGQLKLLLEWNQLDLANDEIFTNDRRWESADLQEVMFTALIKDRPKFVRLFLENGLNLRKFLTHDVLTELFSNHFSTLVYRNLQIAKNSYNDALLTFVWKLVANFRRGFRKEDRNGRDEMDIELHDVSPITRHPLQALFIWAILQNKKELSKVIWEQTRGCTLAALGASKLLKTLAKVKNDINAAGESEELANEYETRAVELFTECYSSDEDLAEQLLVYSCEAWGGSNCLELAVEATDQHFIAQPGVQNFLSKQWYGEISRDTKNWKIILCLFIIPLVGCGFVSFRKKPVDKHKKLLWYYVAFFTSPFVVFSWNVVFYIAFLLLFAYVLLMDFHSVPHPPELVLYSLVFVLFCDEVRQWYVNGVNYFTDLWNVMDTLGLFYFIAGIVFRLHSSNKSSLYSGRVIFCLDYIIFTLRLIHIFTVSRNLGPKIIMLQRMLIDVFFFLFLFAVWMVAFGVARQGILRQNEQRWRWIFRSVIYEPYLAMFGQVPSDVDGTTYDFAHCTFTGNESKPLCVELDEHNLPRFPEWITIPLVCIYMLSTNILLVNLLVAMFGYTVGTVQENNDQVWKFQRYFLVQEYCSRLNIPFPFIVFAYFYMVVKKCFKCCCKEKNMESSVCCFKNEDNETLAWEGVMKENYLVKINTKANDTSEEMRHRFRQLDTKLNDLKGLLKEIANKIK
Description: (§1) As used herein, a functional cell based assay under standard conditions means evaluating the cellular activity of compounds with regard to the modulation of the intracellular calcium level using cells recombinantly expressing human TRPM8 or human TRPA1. In particular, in this context the term “standard conditions” means an activity test using HEK293 cells recombinantly expressing either human TRPM8 or human TRPA1, which cells have been contacted with a calcium-sensitive dye (such as Fluo-4AM, i.e. Fluo-4-acetoxymethylester), wherein the cells are incubated with the compound to be tested, and receptor modulation is quantitatively detected by calcium-dependent changes is fluorescence intensity. Such a test system is disclosed, inter alia, in Behrendt H J et al., Br. J. Pharmacol. 2004, 141:737-745, which is enclosed herein by reference.
(§2) A screening for novel modulators of TRPM8 was conducted. For the screening, a routine screening setup was used. In particular, the compounds comprised by a compound library were tested for agonistic activity towards TRPM8 and a dose response analysis of the most promising candidates was conducted (TRPM8 versus TRPA1). In particular, promising candidates were analyzed with regard to their EC50 values as well as their efficacy values, and 7 development candidates were selected (i.e. Compounds I.3, II.3, III.3, IV.3, V.3, VI.3, and VII.3, as described herein above).
(§3) For the above analysis, a functional cell based assay under standard conditions as described herein was used, i.e. the cellular activity of the compounds with regard to the modulation of the intracellular calcium level was evaluated using cells recombinantly expressing human TRPM8 or human TRPA1. In particular, human cells recombinantly expressing either human TRPM8 or human TRPA1 were used, which cells have been contacted with a calcium-sensitive dye, wherein the cells were incubated with the compound to be tested, and receptor modulation was quantitatively detected by calcium-dependent changes in fluorescence intensity. Such a test system is disclosed, inter alia, in Behrendt H J et al., Br. J. Pharmacol. 2004, 141:737-745, which is enclosed herein by reference. Such a test system is also disclosed, inter alia, in WO 2010/026094, which is also enclosed herein by reference. However, it should be understood that any screening method and method suitable for evaluating the agonistic activity of compounds towards a channel (such as TRPM8) can be used. Suitable methods are routine and known to the skilled person.

[2] = molecular target: T2, human TRPA1 (Homo sapiens, UniProt O75762); experiment: functional cell based calcium assay, cells recombinantly expressing human TRPA1; settings: activator (agonist) of TRPA1; intracellular calcium, calcium-sensitive dye fluorescence
T2 construct: expressed in transfected cells; host or cells: HEK293 (human cells)
T2 sequence (O75762 whole entry): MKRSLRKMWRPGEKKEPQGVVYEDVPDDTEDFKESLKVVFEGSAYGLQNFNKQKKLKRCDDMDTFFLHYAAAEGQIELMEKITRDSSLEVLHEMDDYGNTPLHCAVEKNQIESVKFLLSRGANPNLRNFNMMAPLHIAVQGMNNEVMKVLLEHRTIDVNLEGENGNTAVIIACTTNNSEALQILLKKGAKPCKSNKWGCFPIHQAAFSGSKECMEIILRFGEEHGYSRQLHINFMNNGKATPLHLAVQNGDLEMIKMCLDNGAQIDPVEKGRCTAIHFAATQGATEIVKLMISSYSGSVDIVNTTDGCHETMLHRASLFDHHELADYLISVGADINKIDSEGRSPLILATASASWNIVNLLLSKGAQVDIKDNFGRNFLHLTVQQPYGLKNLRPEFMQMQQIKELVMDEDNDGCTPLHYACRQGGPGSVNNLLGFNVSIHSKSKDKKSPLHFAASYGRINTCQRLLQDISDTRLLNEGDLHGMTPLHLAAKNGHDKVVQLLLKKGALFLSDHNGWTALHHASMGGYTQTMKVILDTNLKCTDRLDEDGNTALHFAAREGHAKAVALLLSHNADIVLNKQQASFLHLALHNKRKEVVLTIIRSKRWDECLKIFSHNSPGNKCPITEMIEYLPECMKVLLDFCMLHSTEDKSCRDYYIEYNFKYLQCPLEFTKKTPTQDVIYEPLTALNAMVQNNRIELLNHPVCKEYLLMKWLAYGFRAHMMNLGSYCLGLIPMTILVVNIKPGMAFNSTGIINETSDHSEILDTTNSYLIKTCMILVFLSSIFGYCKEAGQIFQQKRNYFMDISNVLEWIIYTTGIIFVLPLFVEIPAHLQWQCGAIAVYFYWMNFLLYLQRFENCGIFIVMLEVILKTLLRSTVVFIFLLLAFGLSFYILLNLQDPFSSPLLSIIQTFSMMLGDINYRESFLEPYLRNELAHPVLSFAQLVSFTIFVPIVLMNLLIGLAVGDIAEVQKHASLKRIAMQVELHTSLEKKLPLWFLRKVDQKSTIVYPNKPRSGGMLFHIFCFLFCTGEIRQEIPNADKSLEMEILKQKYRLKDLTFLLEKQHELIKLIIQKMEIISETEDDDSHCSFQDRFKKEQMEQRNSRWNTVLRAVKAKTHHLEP
Description: as §1, §2, §3

| SMILES | EC50 [1] | EC50 as activator of TRPM8 times lower than EC50 as activator of TRPA1 [1] | EC50 [2] |
| --- | --- | --- | --- |
| COc1ccc2c(=O)c(-c3ccccc3)c(C)oc2c1 [Compound I.3, 7-methoxy-2-methyl-3-phenyl-4H-chromen-4-one] | ~2.01 µM and 2.01 µM | about 36 times | ~72.4 µM and 72.4 µM |
| COc1ccc(OC)c(NC=C2C(=O)CC(C)(C)CC2=O)c1 [Compound II.3, 2-{[(2,5-dimethoxyphenyl)amino]methylidene}-5,5-dimethylcyclohexane-1,3-dione] | ~8.01 µM and 8.01 µM | about 15.4 times | ~123 µM and 123 µM |
| Cc1ccc(-c2cc(C(=O)N/N=C/c3ccncc3)[nH]n2)s1 [Compound III.3, 3-(5-methylthiophen-2-yl)-N′-[(1E)-pyridin-4-ylmethylidene]-1H-pyrazole-5-carbohydrazide] | ~5.27 µM and 5.27 µM | about 21.5 times | ~113 µM and 113 µM |

Second part, the compound after the results:

| EC50 [1] | EC50 as activator of TRPM8 times lower than EC50 as activator of TRPA1 [1] | EC50 [2] | SMILES |
| --- | --- | --- | --- |
| ~4.12 µM and 4.12 µM | about 28.6 times | ~118 µM and 118 µM | CCCc1cc(=O)[nH]c(SCC(=O)Nc2cc(Cl)ccc2Cl)n1 [Compound IV.3, N-(2,5-dichlorophenyl)-2-[(6-oxo-4-propyl-1,6-dihydropyrimidin-2-yl)sulfanyl]acetamide] |
| ~7.53 µM and 7.53 µM | about 18.4 times | ~138 µM and 138 µM | Cc1nc2ccccc2n1CCC(=O)N1CCN(Cc2ccc3c(c2)OCO3)CC1 [Compound V.3, 1-[4-(2H-1,3-benzodioxol-5-ylmethyl)piperazin-1-yl]-3-(2-methyl-1H-1,3-benzodiazol-1-yl)propan-1-one] |
| ~8.15 µM and 8.15 µM | about 13.2 times | ~108 µM and 108 µM | Cc1ccc(C(=O)NCC2(c3ccccc3)CCOCC2)cc1 [Compound VI.3, 4-methyl-N-[(4-phenyloxan-4-yl)methyl]benzamide] |
| ~10.9 µM and 10.9 µM | about 5.2 times | ~56.6 µM and 56.6 µM | CC(C)C(CCNCCCN(C)C)c1ccc(Cl)cc1 (stereo not drawn) [Compound VII.3, [3-(4-chlorophenyl)-4-methylpentyl][3-(dimethylamino)propyl]amine] |

From patent US9585865B2, “Small molecule modulators of the cold and menthol receptor TRPM8” (B.R.A.I.N. Biotechnology Research and Information Network AG, priority 2011, dated 2017)
